According to ChEMBL document CHEMBL3991601, “The target landscape of clinical kinase drugs” (Science, 2017):
pKd: −log10 of the molar value. Activity calls are given as the source filed them.

Assays:
Focal adhesion kinase 1 = Focal adhesion kinase 1 (Homo sapiens, UniProt Q05397)
[1] = target: Cell division cycle 7-related protein kinase (Homo sapiens, UniProt O00311)
[2] = target: Dual specificity testis-specific protein kinase 1 (Homo sapiens, UniProt Q15569)
[3] = target: Cyclin-dependent kinase 17 (Homo sapiens, UniProt Q00537)
Ephrin type-A receptor 1 = target: T1, Ephrin type-A receptor 1 (Homo sapiens, UniProt P21709)
T1 sequence (P21709 whole entry): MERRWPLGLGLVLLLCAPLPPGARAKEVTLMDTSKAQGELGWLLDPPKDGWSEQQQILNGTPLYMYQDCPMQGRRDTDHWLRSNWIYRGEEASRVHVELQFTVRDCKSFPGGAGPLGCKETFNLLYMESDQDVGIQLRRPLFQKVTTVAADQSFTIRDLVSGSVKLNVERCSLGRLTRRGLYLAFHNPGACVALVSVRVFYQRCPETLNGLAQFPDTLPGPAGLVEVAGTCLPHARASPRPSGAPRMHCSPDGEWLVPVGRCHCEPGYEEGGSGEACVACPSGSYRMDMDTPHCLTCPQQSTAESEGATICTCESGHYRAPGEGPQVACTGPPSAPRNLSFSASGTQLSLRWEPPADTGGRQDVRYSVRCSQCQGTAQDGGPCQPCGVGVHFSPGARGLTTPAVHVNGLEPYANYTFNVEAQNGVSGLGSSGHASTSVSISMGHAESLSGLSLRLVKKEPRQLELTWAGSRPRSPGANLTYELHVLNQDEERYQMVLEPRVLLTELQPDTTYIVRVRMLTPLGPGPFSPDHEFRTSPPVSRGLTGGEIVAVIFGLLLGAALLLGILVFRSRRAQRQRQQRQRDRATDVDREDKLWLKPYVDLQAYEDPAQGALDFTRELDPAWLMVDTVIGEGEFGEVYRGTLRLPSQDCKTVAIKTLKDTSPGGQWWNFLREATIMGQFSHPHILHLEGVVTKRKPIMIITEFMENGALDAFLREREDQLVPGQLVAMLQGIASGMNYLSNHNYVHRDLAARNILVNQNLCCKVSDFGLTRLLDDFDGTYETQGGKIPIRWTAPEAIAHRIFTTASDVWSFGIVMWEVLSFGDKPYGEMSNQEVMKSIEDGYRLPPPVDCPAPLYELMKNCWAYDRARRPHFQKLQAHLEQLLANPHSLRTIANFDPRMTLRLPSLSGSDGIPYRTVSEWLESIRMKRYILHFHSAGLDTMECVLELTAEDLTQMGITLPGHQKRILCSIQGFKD

[4] = target: Dual specificity protein kinase CLK4 (Homo sapiens, UniProt Q9HAZ1)
[5] = target: T2, Receptor-type tyrosine-protein kinase FLT3 (Homo sapiens, UniProt P36888)
T2 sequence (P36888 whole entry): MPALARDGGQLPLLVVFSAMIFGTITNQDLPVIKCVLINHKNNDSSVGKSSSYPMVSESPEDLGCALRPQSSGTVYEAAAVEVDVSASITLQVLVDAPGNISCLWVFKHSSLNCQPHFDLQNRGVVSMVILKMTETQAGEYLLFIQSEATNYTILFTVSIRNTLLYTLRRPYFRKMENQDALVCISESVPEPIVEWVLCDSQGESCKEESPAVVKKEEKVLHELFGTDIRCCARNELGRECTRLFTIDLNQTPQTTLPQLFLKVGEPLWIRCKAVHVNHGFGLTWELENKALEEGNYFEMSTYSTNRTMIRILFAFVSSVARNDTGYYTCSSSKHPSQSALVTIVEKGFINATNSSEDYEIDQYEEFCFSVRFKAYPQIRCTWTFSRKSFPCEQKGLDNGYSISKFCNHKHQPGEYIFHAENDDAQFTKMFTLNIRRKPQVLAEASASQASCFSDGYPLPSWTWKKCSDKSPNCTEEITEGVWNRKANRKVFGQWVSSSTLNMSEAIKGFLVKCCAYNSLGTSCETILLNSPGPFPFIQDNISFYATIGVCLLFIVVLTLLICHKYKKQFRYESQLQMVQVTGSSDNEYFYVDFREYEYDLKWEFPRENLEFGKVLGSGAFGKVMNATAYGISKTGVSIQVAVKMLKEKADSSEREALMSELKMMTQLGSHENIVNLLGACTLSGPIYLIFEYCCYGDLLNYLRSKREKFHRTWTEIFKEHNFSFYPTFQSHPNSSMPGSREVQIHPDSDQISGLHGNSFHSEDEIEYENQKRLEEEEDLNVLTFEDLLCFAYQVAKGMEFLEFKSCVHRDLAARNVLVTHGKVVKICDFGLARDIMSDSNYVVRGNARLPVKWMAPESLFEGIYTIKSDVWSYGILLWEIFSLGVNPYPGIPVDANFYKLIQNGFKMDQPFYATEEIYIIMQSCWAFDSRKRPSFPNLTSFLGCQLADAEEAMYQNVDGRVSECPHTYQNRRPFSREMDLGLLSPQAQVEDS

[6] = target: Dual specificity protein kinase CLK3 (Homo sapiens, UniProt P49761); assay type: subcellular, K-562, COLO 205, SK-N-BE(2) and MV-4-11, Cell lysate; details: read-out: Kd apparent
[7] = target: T3, Protein kinase C zeta type (Homo sapiens, UniProt Q05513)
T3 sequence (Q05513 whole entry): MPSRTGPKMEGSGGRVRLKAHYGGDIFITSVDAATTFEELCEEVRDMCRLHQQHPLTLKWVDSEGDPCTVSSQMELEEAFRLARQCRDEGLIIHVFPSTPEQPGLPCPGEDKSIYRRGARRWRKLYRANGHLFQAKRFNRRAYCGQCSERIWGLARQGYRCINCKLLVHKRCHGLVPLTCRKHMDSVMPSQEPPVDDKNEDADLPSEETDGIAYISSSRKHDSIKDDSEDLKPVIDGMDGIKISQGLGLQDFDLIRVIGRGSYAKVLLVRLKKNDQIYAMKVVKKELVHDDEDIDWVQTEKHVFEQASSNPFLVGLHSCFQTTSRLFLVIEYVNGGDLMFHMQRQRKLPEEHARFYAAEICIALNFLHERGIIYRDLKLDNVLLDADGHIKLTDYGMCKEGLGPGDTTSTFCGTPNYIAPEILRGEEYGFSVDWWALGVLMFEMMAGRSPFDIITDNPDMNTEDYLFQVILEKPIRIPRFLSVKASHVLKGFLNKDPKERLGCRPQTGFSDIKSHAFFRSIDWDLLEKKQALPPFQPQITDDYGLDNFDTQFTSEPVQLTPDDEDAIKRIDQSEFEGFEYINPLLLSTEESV

[8] = target: MAP kinase-activated protein kinase 3 (Homo sapiens, UniProt Q16644)
[9] = target: Epidermal growth factor receptor (Homo sapiens, UniProt P00533)
Also: in the data inactive means no Kd found up to 30 µM.

Chain of Epidermal growth factor receptor (P00533 whole entry): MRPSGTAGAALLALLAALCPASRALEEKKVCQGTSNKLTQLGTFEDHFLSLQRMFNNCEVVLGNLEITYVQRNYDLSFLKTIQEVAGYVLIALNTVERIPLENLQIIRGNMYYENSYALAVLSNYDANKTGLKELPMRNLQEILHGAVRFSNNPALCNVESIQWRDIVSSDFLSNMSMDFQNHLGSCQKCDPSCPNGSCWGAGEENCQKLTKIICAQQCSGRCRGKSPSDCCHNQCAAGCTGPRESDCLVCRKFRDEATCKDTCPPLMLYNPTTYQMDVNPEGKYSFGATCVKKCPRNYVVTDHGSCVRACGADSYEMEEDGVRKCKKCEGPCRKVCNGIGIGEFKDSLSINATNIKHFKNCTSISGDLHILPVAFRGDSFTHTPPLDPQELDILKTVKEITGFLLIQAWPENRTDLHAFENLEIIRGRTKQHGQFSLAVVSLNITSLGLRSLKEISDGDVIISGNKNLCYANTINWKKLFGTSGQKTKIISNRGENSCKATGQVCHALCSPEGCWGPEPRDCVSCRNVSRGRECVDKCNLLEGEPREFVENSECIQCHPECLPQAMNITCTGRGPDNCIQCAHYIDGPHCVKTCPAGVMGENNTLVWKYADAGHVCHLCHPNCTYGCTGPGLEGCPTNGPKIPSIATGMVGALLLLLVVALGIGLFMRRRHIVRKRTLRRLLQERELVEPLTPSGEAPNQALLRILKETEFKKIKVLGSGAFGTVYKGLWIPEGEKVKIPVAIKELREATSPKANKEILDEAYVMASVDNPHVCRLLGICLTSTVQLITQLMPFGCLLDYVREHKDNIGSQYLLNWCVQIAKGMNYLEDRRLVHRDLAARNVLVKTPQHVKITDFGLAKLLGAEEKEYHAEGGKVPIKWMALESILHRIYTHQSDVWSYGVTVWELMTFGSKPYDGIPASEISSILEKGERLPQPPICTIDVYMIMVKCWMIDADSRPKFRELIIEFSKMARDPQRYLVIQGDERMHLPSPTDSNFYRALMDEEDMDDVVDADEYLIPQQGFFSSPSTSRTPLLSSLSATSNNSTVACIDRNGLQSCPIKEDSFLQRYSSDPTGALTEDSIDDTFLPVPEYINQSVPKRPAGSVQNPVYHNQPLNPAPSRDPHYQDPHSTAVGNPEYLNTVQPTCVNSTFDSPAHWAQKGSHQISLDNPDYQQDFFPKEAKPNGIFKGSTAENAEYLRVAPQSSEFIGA
Chain of Cyclin-dependent kinase 17 (Q00537 whole entry): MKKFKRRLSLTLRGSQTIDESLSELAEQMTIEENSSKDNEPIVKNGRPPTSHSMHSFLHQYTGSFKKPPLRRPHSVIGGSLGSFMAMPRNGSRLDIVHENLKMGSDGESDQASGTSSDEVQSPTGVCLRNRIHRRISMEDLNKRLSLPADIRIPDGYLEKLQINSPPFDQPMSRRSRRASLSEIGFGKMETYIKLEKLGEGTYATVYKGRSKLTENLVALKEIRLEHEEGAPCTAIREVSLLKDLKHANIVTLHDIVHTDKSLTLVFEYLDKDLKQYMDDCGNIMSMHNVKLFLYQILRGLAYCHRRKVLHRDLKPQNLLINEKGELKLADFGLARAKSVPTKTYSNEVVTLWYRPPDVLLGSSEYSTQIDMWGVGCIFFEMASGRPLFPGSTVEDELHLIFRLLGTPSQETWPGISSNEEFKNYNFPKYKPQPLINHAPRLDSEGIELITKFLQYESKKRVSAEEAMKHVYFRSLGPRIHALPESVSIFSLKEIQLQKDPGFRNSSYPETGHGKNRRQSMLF
Chain of Dual specificity protein kinase CLK3 (P49761 whole entry): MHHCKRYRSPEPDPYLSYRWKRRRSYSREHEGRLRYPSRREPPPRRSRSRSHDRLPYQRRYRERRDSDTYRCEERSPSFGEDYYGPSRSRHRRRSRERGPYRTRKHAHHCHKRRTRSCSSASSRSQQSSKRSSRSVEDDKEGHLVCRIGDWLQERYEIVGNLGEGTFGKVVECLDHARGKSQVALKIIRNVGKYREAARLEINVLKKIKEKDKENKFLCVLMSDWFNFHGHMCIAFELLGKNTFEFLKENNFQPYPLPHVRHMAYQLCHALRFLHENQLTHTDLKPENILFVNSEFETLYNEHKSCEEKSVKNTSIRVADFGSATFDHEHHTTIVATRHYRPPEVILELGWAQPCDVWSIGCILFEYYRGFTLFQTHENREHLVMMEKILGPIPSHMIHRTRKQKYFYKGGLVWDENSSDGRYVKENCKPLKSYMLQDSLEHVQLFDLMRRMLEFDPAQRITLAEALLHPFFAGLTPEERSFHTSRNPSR
Chain of Dual specificity protein kinase CLK4 (Q9HAZ1 whole entry): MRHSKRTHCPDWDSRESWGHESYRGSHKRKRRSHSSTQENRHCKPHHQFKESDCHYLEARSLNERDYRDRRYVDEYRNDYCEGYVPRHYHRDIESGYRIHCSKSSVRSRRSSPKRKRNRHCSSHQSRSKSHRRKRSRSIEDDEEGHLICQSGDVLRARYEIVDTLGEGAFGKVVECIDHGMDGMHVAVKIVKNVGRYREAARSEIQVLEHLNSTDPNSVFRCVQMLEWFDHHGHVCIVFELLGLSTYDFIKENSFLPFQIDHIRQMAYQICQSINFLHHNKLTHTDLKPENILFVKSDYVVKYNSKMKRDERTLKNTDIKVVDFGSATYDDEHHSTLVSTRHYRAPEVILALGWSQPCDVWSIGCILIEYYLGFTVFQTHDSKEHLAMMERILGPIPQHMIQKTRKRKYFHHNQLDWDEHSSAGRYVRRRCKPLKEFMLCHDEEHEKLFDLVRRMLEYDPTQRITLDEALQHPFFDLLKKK
Chain of Dual specificity testis-specific protein kinase 1 (Q15569 whole entry): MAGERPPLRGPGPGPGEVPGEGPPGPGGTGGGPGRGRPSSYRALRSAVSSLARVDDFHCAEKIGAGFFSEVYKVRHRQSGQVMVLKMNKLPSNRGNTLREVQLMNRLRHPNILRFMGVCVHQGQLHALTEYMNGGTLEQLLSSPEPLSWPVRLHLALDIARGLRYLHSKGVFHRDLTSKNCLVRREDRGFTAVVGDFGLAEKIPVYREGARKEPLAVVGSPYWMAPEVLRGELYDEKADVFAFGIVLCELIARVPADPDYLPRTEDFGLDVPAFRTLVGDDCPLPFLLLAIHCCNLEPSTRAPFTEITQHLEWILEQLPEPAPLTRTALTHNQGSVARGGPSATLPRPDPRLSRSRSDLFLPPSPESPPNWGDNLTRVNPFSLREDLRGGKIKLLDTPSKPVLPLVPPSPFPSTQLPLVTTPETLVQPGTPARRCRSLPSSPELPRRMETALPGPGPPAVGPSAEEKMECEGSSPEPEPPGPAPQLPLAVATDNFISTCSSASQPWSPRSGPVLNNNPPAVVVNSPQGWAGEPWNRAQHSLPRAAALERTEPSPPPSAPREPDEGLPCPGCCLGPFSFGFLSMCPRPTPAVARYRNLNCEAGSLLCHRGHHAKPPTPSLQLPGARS
Chain of Cell division cycle 7-related protein kinase (O00311 whole entry): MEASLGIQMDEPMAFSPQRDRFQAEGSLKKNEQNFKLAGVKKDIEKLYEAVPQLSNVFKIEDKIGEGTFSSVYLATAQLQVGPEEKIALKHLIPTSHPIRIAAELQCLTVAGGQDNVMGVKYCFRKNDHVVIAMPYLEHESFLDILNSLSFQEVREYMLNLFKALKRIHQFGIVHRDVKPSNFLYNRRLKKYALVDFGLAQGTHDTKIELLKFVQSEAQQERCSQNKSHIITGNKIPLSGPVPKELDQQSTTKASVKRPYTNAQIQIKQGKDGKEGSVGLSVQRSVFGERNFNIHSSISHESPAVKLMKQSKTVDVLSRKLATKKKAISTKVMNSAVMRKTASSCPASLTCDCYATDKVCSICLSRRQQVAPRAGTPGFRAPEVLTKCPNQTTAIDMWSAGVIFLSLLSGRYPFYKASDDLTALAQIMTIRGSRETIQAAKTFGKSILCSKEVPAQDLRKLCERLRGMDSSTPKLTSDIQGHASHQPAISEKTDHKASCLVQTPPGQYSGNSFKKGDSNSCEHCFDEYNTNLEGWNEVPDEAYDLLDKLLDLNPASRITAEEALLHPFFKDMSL
Chain of Focal adhesion kinase 1 (Q05397 whole entry): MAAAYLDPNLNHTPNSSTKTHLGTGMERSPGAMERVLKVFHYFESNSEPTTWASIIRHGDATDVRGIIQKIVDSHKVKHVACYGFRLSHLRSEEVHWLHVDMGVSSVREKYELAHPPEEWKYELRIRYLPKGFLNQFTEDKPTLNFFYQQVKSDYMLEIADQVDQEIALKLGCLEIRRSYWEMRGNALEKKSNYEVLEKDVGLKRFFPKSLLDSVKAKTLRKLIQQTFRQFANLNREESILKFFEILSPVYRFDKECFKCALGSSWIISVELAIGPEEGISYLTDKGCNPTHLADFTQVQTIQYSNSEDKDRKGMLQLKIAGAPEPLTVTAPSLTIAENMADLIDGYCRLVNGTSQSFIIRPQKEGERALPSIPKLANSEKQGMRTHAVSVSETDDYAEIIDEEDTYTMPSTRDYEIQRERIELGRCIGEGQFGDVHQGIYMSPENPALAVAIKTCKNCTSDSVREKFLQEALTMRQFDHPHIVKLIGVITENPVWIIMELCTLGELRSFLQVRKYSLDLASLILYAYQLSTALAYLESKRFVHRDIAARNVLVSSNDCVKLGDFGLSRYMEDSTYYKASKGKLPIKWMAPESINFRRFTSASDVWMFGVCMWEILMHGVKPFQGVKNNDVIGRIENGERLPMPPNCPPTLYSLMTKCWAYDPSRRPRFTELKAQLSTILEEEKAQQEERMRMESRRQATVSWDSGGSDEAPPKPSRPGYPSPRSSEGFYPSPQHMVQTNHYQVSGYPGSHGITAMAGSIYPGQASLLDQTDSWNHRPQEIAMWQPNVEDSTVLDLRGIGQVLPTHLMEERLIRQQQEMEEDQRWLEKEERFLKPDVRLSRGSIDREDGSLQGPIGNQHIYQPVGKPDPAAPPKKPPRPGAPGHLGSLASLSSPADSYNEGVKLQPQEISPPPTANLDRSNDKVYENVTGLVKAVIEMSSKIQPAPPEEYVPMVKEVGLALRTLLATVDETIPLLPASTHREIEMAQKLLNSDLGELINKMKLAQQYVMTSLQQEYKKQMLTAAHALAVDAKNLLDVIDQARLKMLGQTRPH

| Compound | Kd (Focal adhesion kinase 1) | Kd [1] | Kd [2] | Kd [3] | Kd (Ephrin type-A receptor 1) | Kd [4] | Kd [5] | Kd [6] | Kd [7] | Kd [8] | pKd [4] | Kd [9] |
| --- | --- | --- | --- | --- | --- | --- | --- | --- | --- | --- | --- | --- |
| Cn1cc(-c2[nH]c3cc(NC(=O)[C@H](N)C4CCCCC4)cc4c3c2C=NNC4=O)cn1 | > 30 µM (inactive) | > 30 µM (inactive) | > 30 µM (inactive) | > 30 µM (inactive) | > 30 µM (inactive) | > 30 µM (inactive) | 0.05 µM (active) | > 30 µM (inactive) | > 30 µM (inactive) |  |  |  |
| CCN1CCN(Cc2ccc(Nc3ncc(F)c(-c4cc(F)c5nc(C)n(C(C)C)c5c4)n3)nc2)CC1 [ABEMACICLIB] | > 30 µM (inactive) | > 30 µM (inactive) | > 30 µM (inactive) |  | > 30 µM (inactive) |  |  | > 30 µM (inactive) | > 30 µM (inactive) | > 30 µM (inactive) | 7.89 | > 30 µM (inactive) |
| CN(C)C/C=C/C(=O)Nc1cc2c(Nc3ccc(F)c(Cl)c3)ncnc2cc1O[C@H]1CCOC1 [AFATINIB] |  | > 30 µM (inactive) |  |  |  |  |  |  | > 30 µM (inactive) | > 30 µM (inactive) |  |  |
| CCc1cc2c(cc1N1CCC(N3CCOCC3)CC1)C(C)(C)c1[nH]c3cc(C#N)ccc3c1C2=O [ALECTINIB] | > 30 µM (inactive) | > 30 µM (inactive) | > 30 µM (inactive) | > 30 µM (inactive) | 0.193 µM (active) | > 30 µM (inactive) | > 30 µM (inactive) | 1.4 µM (active) | > 30 µM (inactive) | > 30 µM (inactive) |  |  |
| C[C@@]1(C(=O)Nc2ccc(F)nc2)CCCN1c1nc(Nc2cc(C3CC3)n[nH]2)c2cccn2n1 [BMS-754807] |  |  |  |  |  |  |  |  | > 30 µM (inactive) | > 30 µM (inactive) |  |  |
| COc1cc2nccc(Oc3ccc(NC(=O)C4(C(=O)Nc5ccc(F)cc5)CC4)cc3)c2cc1OC [CABOZANTINIB] | > 30 µM (inactive) | > 30 µM (inactive) |  | > 30 µM (inactive) |  | > 30 µM (inactive) |  | > 30 µM (inactive) | > 30 µM (inactive) |  |  |  |
| Cn1c(=O)n(-c2ccc(C(C)(C)C#N)cc2)c2c3cc(-c4cnc5ccccc5c4)ccc3ncc21 [DACTOLISIB] |  |  | > 30 µM (inactive) | > 30 µM (inactive) | > 30 µM (inactive) |  |  |  | > 30 µM (inactive) | > 30 µM (inactive) |  | > 30 µM (inactive) |
| COc1cc(Nc2ncc(F)c(Nc3ccc4c(n3)N(COP(=O)(O)O)C(=O)C(C)(C)O4)n2)cc(OC)c1OC [FOSTAMATINIB] | 5.4 µM (active) | > 30 µM (inactive) | > 30 µM (inactive) | > 30 µM (inactive) | > 30 µM (inactive) |  | 0.843 µM (active) | > 30 µM (inactive) | > 30 µM (inactive) |  |  | > 30 µM (inactive) |
